Measured values as given in US20210386367A1, “DEVICES AND SYSTEMS FOR GASTROINTESTINAL MICROBIOME DETECTION AND MANIPULATION” (Progenity, Inc., priority 2018, published 2021).
In brackets after ≈: the same amount, converted by molar mass. Like-named read-outs stand apart in the source and are kept apart here.

Tests used:
[1] = test system: E. coli spontaneous mutants; test: Broth microdilution MIC of spontaneous mutants; type: cell-based, Escherichia coli; conditions: Escherichia coli
Procedure, shortened: (§1)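 Spontaneous mutants from drug selection plates were tested by CLSI broth microdilution in MHB II with two-fold serial drug dilutions. Inoculum was about 5×10^5 CFU/mL, incubated aerobically at 35° C. for 18-20 hr. MIC was the lowest concentration inhibiting visible growth.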

[2] = test system: Streptococcus spp. spontaneous mutants; test: organism not typed; type: cell-based
Procedure, shortened: as §1

[3] = test system: E. coli, Streptococcus spp., and Bacteroides spp. isolates; type: cell-based; conditions: remaining isolates (E. coli, Streptococcus spp.)
Procedure: Initial values of the MIC were determined by agar dilution in accordance with guidelines from the Clinical and Laboratory Standards Institute (CLSI; (1) “Methods for Dilution Antimicrobial Susceptibility Tests for Bacteria That Grow Aerobically; Approved Standard; 11th ed.,” CLSI standard M07, 2018; (2) “Methods for Antimicrobial Susceptibility Testing of Anaerobic Bacteria; Approved Standard—Eighth Edition,” CLSI document M11-A8, 2012.).
If there were no colonies on the antibiotic selection plates, the spontaneous mutation frequency was reported as less than the frequency observed with one colony to indicate that the spontaneous mutation frequency was less than the limit of detection (one CFU). […] The mutation prevention concentration (MPC) was reported as the lowest concentration for which no mutants were selected.

[4] = test system: S. agalactiae ATCC 13813; test: Broth microdilution MIC (time-kill study); type: cell-based, Streptococcus agalactiae
[5] = test system: Bacteroides spp. spontaneous mutants; test: Broth microdilution MIC of spontaneous mutants; type: cell-based; conditions: for MIC: read-out: MIC
Procedure, shortened: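 Isolates from drug selection plates were subcultured on agar containing drug at the selection concentration and identified by MALDI, then MIC was determined by CLSI broth microdilution (M100-S28) with serial two-fold dilutions. Plates were pre-reduced 1 h in an anaerobic chamber; final inoculum ~1×10^6 CFU/mL.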

[6] = test system: Streptococcus spp. (S. pneumoniae ATCC 49619, S. pyogenes ATCC 49399, S. agalactiae ATCC 13813); test: Agar dilution MIC (spontaneous mutation study; strain in conditions); type: cell-based
[7] = test system: E. coli MMX 1312; test: Time-kill assay; type: cell-based, Escherichia coli; conditions: 2×, 4×, 8× MIC; 2, 6, 24 hr
[8] = test system: S. pneumoniae ATCC 49619; conditions: cited from earlier work

For `CO/N=C(\C(=O)N[C@@H]1C(=O)N2C(C(=O)O)=C(CSc3nc(=O)c(=O)[nH]n3C)CS[C@H]12)c1csc(N)n1` [ceftriaxone], the MIC ([1]; ATCC25922, E. coli ATCC 25922, selected on rifaximin 4X MIC, Colony A) was 0.03 µg/mL, the MIC ([1]; ATCC25922, E. coli ATCC 25922, selected on rifaximin 4X MIC, Colony B) was 0.03 µg/mL and the MIC ([1]; ATCC25922, E. coli ATCC 25922, selected on rifaximin 8X MIC, Colony A) was 0.03 µg/mL. For the same molecule, the MIC ([1]; ATCC25922, E. coli ATCC 25922 Parent (Table 52)) was 0.12 µg/mL, the MIC ([1]; ATCC35218, E. coli ATCC 35218, selected on rifaximin 4X MIC, Colony A) was 0.03 µg/mL and the MIC ([1]; ATCC35218, E. coli ATCC 35218, selected on rifaximin 4X MIC, Colony B) was 0.03 µg/mL. It also gave an MIC ([1]; ATCC35218, E. coli ATCC 35218, selected on rifaximin 8X MIC, Colony A) of 0.06 µg/mL, an MIC ([1]; ATCC35218, E. coli ATCC 35218, selected on rifaximin 8X MIC, Colony B) of 0.03 µg/mL and an MIC ([1]; ATCC35218, E. coli ATCC 35218 Parent (Table 52)) of 0.03 µg/mL. It also gave an MIC ([1]; E. coli MMX 1312, selected on ceftriaxone 4X MIC, Colony A) of 3 µg/mL, an MIC ([1]; E. coli MMX 1312, selected on ceftriaxone 4X MIC, Colony B) of 4 µg/mL and an MIC ([1]; E. coli MMX 1312, selected on ceftriaxone 4X MIC, Colony C) of 8 µg/mL. For the same molecule, the MIC ([1]; E. coli MMX 1312, selected on ceftriaxone 8X MIC, Colony A) was 3 µg/mL, the MIC ([1]; E. coli MMX 1312, selected on ceftriaxone 8X MIC, Colony B) was 3 µg/mL and the MIC ([1]; E. coli MMX 1312, selected on ceftriaxone 8X MIC, Colony C) was 4 µg/mL. For the same molecule, the MIC ([1]; E. coli MMX 1312, selected on rifaximin 4X MIC, Colony A) was 2 µg/mL, the MIC ([1]; E. coli MMX 1312, selected on rifaximin 4X MIC, Colony B) was 2 µg/mL and the MIC ([1]; E. coli MMX 1312, selected on rifaximin 8X MIC, Colony A) was 8 µg/mL. It also gave an MIC ([1]; E. coli MMX 1312, selected on rifaximin 8X MIC, Colony B) of 8 µg/mL, an MIC ([1]; E. coli MMX 1312 Parent) of 4 µg/mL and an MIC ([1]; E. coli MMX 1312 Parent (Table 49)) of 4 µg/mL. The MIC ([1]; E. coli MMX 1312 Parent (Table 52)) was 4 µg/mL, the MIC ([1]; E. coli MMX 1312 mutant selected on meropenem 4X MIC, colony A) was 4 µg/mL and the MIC ([1]; E. coli MMX 1312 mutant selected on meropenem 4X MIC, colony B) was 8 µg/mL. It also gave an MIC ([1]; E. coli MMX 1312 mutant selected on meropenem 4X MIC, colony C) of 4 µg/mL, an MIC ([1]; E. coli MMX 1312 mutant selected on meropenem 8X MIC, colony A) of 4 µg/mL and an MIC ([1]; E. coli MMX 1312 mutant selected on meropenem 8X MIC, colony B) of 4 µg/mL. For the same molecule, the MIC ([1]; E. coli MMX 1312 mutant selected on meropenem 8X MIC, colony C) was 4 µg/mL, the MIC ([2]; S. pneumoniae ATCC 49619, selected on rifaximin 4X MIC, Colony A) was 0.03 µg/mL (≈ 0.0541 µM) and the MIC ([2]; S. pneumoniae ATCC 49619, selected on rifaximin 4X MIC, Colony B) was 0.06 µg/mL (≈ 0.108 µM). The MIC ([2]; S. pneumoniae ATCC 49619, selected on rifaximin 8X MIC, Colony A) was 0.03 µg/mL (≈ 0.0541 µM), the MIC ([2]; S. pneumoniae ATCC 49619, selected on rifaximin 8X MIC, Colony B) was 0.03 µg/mL (≈ 0.0541 µM) and the MIC ([2]; S. pneumoniae ATCC 49619 Parent) was 0.06 µg/mL (≈ 0.108 µM). For the same molecule, the MIC ([2]; S. pyogenes ATCC 49399, selected on rifaximin 4X MIC, Colony A) was 0.008 µg/mL (≈ 0.0144 µM), the MIC ([2]; S. pyogenes ATCC 49399, selected on rifaximin 4X MIC, Colony B) was 0.015 µg/mL (≈ 0.027 µM) and the MIC ([2]; S. pyogenes ATCC 49399, selected on rifaximin 8X MIC, Colony A) was 0.015 µg/mL (≈ 0.027 µM). For the same molecule, the MIC ([2]; S. pyogenes ATCC 49399, selected on rifaximin 8X MIC, Colony B) was 0.008 µg/mL (≈ 0.0144 µM), the MIC ([2]; S. pyogenes ATCC 49399 Parent) was 0.015 µg/mL (≈ 0.027 µM) and the MIC ([2]; Streptococcus, ATCC13813, S. agaloctiae ATCC 13813, selected on rifaximin 4X MIC, Colony A) was 0.015 µg/mL (≈ 0.027 µM). It also gave an MIC ([2]; Streptococcus, ATCC13813, S. agaloctiae ATCC 13813, selected on rifaximin 4X MIC, Colony B) of 0.015 µg/mL (≈ 0.027 µM), an MIC ([2]; Streptococcus, ATCC13813, S. agaloctiae ATCC 13813, selected on rifaximin 8X MIC, Colony A) of 0.015 µg/mL (≈ 0.027 µM) and an MIC ([2]; Streptococcus, ATCC13813, S. agaloctiae ATCC 13813, selected on rifaximin 8X MIC, Colony B) of 0.06 µg/mL (≈ 0.108 µM). The MIC ([2]; Streptococcus, ATCC13813, S. agaloctiae ATCC 13813 Parent) was 0.015 µg/mL (≈ 0.027 µM), the “overall MPC values” [3] was 0.12 to 0.25 µg/mL and the MIC ([4]; S. agalacttae ATCC 13813 (so in the source)) was 0.015 µg/mL (≈ 0.027 µM). It also gave an MIC ([4]; Streptococcus agalactiae, ATCC13813, broth microdilution, read-out: MIC) of 0.015 µg/mL (≈ 0.027 µM), an MIC ([5]; B. fragilis ATCC 25285, selected on rifaximin 4X MIC, Colony A) of 16 µg/mL and an MIC ([5]; B. fragilis ATCC 25285, selected on rifaximin 4X MIC, Colony B) of 32 µg/mL. It also gave an MIC ([5]; B. fragilis ATCC 25285, selected on rifaximin 8X MIC, Colony A) of 32 µg/mL, an MIC ([5]; B. fragilis ATCC 25285, selected on rifaximin 8X MIC, Colony B) of 32 µg/mL and an MIC ([5]; B. fragilis ATCC 25285 Parent) of 32 µg/mL. It also gave an MIC ([5]; B. ovatus MMX 3503, selected on rifaximin 4X MIC, Colony A) of 128 µg/mL, an MIC ([5]; B. ovatus MMX 3503, selected on rifaximin 4X MIC, Colony B) of 64 µg/mL and an MIC ([5]; B. ovatus MMX 3503, selected on rifaximin 8X MIC, Colony A) greater than 128 µg/mL. For the same molecule, the MIC ([5]; B. ovatus MMX 3503, selected on rifaximin 8X MIC, Colony B) was 64 µg/mL, the MIC ([5]; B. ovatus MMX 3503 Parent) was 128 µg/mL and the “broth microdilution MIC higher than parent” value ([5]; B. vulgatus ATCC 8482, one of two isolates selected at 4× the MIC) was 4 fold. For the same molecule, the MIC ([5]; B. vulgatus ATCC 8482, selected on ceftriaxone 4X MIC, Colony A) was 2 µg/mL, the MIC ([5]; B. vulgatus ATCC 8482, selected on ceftriaxone 4X MIC, Colony B) was 4 µg/mL and the MIC ([5]; B. vulgatus ATCC 8482, selected on rifaximin 4X MIC, Colony A) was 2 µg/mL. The MIC ([5]; B. vulgatus ATCC 8482, selected on rifaximin 4X MIC, Colony B) was 1 µg/mL, the MIC ([5]; B. vulgatus ATCC 8482, selected on rifaximin 8X MIC, Colony A) was 2 µg/mL and the MIC ([5]; B. vulgatus ATCC 8482, selected on rifaximin 8X MIC, Colony B) was 2 µg/mL. For the same molecule, the MIC ([5]; B. vulgatus ATCC 8482 Parent (Table 50)) was 1 µg/mL, the MIC ([5]; B. vulgatus ATCC 8482 Parent (Table 54)) was 1 µg/mL and the MIC ([6]; Streptococcus agalactiae, S. agalactiae ATCC 13813, read-out: Agar MIC) was 0.06 µg/mL (≈ 0.108 µM). It also gave an MIC ([6]; Streptococcus pneumoniae, S. pneumoniae ATCC 49619, read-out: Agar MIC) of 0.06 µg/mL (≈ 0.108 µM), an MIC ([6]; Streptococcus pyogenes, S. pyogenes ATCC 49399, read-out: Agar MIC) of 0.03 µg/mL (≈ 0.0541 µM) and an MIC ([6]; over evaluated Streptococcus spp. (range stated jointly with other groups), read-out: MIC values (agar dilution)) of 0.03 to 0.06 µg/mL (≈ 0.0541 to 0.108 µM). For the same molecule, the “time-kill kinetics outcome (bactericidal = ≥3 log reduction in CFU per mL)” value [7] was “killing at 6 and 24 hr that approached 3-logs” and the “CLSI QC range (MIC)” value [8] was “(0.03-0.12) μg/mL”.
